Tests used:
[1] = test system: H3K4 trimethylation and histone acetylation; conditions: Huang et al. (2011); cited from earlier work
[2] = test system: H3K4 trimethylation machinery (H3K4me3 indicator); assay: H3K4 trimethylation (H3K4me3) indicator reporter allele, FACS; type: cell-based
Text: An H3K4 trimethylation reporter was also created (FIG. 5B). This reporter is based on the H3 tail on one end and the TBP associated factor III (TAFIII) […] on the other end; the TAFIII […] only identifies and binds to trimethylated K4 on H3. When the H3K4 site gets trimethylated, the TAFIII […] can bind to the modified H3 tail and bring the two parts of the separated GFP in close proximity. The activity of the epigenetic modification system can be quantified through fluorescence.
Epigenetic reporter alleles were synthesized (OriGene, Rockville, Md.) using published sequences for component elements (Baird et al. (1999) Proc. Natl. Acad. Sci. 96:11241-6; Souslova et al. (2007) BMC Biotechnol. 7:37). Single nucleotide mutations were created using the QuickChange Lightening kit (Agilent Technologies Inc, Santa Clara, Calif.). […] FACS data were analyzed using FlowJo (Tree Star Inc, Ashland, Oreg.). […]
Epigenetic reporter systems were created that monitor either H4 acetylation or H3K4 trimethylation machinery activity in an effort to determine whether there is an ongoing activity deficiency in cells from Kmt2d^+/βGeo mice (FIG. 18A). Both reporter alleles encode halves of green fluorescent protein separated by a flexible linker region (Baird et al. (1999) Proc. Natl. Acad. Sci. 96: 11241-6) with a histone tail and a histone reader at the N- and C-termini, respectively. […]

Question: With CC(C)[C@H](C(=O)Nc1ccc(C(=O)NO)cc1)c1ccccc1 [AR-42, (S)—N-hydroxy-4-(3-methyl-2-phenylbutanamido)benzamide] as the compound, how does the “relative effect on H3K4me3 among HDACi” value [1] read?
Answer: Its value is “strongest effect on H3K4me3”.

Question: And the “H3K4me3 indicator response to increasing levels of drug” value ([2]; FIG. 18F)?
Answer: The value was “dose dependent response”.

Question: And the cell numbers ([2]; at higher doses, FIG. 18F (red line))?
Answer: Its cell numbers is “decreased cell numbers”.

Source: patent publication US11357748B2, “Methods for treating mendelian disorders of the epigenetic machinery” (THE JOHNS HOPKINS UNIVERSITY, priority 2014, dated 2022)
